# Results taken from ChEMBL document CHEMBL4145540 (Eur J Med Chem, 2018).
# Activity calls are given as the source filed them. The calls are words filed in the database; no cut-off is given here.
# Experiments:
# [1] = test system: MCF7; assay: Antiproliferative activity against human MCF7 cells after 2 days by MTT assay; format: functional, cell-based; details: MCF7, 48 h
# [2] = test system: MDA-MB-231; assay: Antiproliferative activity against human MDA-MB-231 cells after 3 days by coulter counting method; format: functional, cell-based; details: MDA-MB-231, 72 h
# [3] = test system: HEK293; assay: Antiproliferative activity against HEK293 cells after 2 days by MTT assay; format: cell-based; details: Homo sapiens, HEK293, 48 h
# [4] = test system: A549; assay: Cell cycle arrest in human A549 cells assessed as accumulation at S phase at 75 nM after 20 hrs by propidium iodide staining based flow cytometry (reference value: 16 +/- 1%); format: functional
# [5] = species on record: Bos taurus; assay: Inhibition of calf brain tubulin polymerization after 60 mins by turbidimetric method
# [6] = test system: A549; assay: Cell cycle arrest in human A549 cells assessed as accumulation at G2/M phase at 75 nM after 20 hrs by propidium iodide staining based flow cytometry (reference value: 11 +/- 1%); format: functional
# [7] = test system: HT-29; assay: Antiproliferative activity against human HT-29 cells after 2 days by MTT assay; format: functional, cell-based; details: HT-29, 48 h
# [8] = test system: HMEC-1; assay: Antiproliferative activity against HMEC1 cells after 2 days by MTT assay; format: functional, cell-based; details: Homo sapiens, HMEC-1, 48 h
# [9] = test system: A549; assay: Cell cycle arrest in human A549 cells assessed as accumulation at sub-G0 phase at 75 nM after 20 hrs by propidium iodide staining based flow cytometry (reference value: 6.6 +/- 0.1%); format: functional
# [10] = test system: A549; assay: Antiproliferative activity against human A549 cells after 2 days by MTT assay; format: functional, cell-based; details: A549, 48 h
# [11] = test system: A549; assay: Induction of apoptosis in human A549 cells at 10 nM after 24 hrs by Annexin V-FITC/propidium iodide staining based flow cytometry (reference value: 28%); format: functional
# [12] = test system: HeLa; assay: Antiproliferative activity against human HeLa cells after 2 days by MTT assay; format: functional, cell-based; details: 48 h
# [13] = test system: HL-60; assay: Antiproliferative activity against human HL60 cells after 2 days by MTT assay; format: functional, cell-based; details: HL-60, 48 h
# [14] = test system: A549; assay: Induction of apoptosis in human A549 cells at 100 nM after 24 hrs by Annexin V-FITC/propidium iodide staining based flow cytometry (reference value: 28%); format: functional
# [15] = test system: A549; assay: Induction of apoptosis in human A549 cells after 24 hrs by Annexin V-FITC/propidium iodide staining based flow cytometry; format: functional, cell-based
# [16] = test system: A549; assay: Cell cycle arrest in human A549 cells assessed as accumulation at G0/G1 phase at 75 nM after 20 hrs by propidium iodide staining based flow cytometry (reference value: 66 +/- 1%); format: functional
# [17] = test system: A549; assay: Disruption of microtubule network in human A549 cells assessed as appearance of compressed and fragmented nuclei at 300 nM after 16 hrs by Hoechst staining based immunofluorescence assay; format: cell-based
# [18] = test system: A549; assay: Disruption of microtubule network in human A549 cells assessed as appearance of tubulin aggregates at 300 nM after 16 hrs by Hoechst staining based immunofluorescence assay; format: cell-based
# [19] = test system: A549; assay: Cell cycle arrest in human A549 cells assessed as accumulation at G0/G1 phase at 90 nM after 20 hrs by propidium iodide staining based flow cytometry (reference value: 66 +/- 1%); format: functional
# [20] = test system: A549; assay: Cell cycle arrest in human A549 cells assessed as accumulation at S phase at 90 nM after 20 hrs by propidium iodide staining based flow cytometry (reference value: 16 +/- 1%); format: functional
# [21] = test system: A549; assay: Cell cycle arrest in human A549 cells assessed as accumulation at sub-G0 phase at 90 nM after 20 hrs by propidium iodide staining based flow cytometry (reference value: 6.6 +/- 0.1%); format: functional
# [22] = test system: A549; assay: Cell cycle arrest in human A549 cells assessed as accumulation at G2/M phase at 90 nM after 20 hrs by propidium iodide staining based flow cytometry (reference value: 11 +/- 1%); format: functional
# [23] = test system: A549; assay: Cell cycle arrest in human A549 cells assessed as accumulation at G2/M phase at 160 nM after 20 hrs by propidium iodide staining based flow cytometry (reference value: 11 +/- 1%); format: functional
# [24] = test system: A549; assay: Cell cycle arrest in human A549 cells assessed as accumulation at S phase at 160 nM after 20 hrs by propidium iodide staining based flow cytometry (reference value: 16 +/- 1%); format: functional
# [25] = test system: A549; assay: Cell cycle arrest in human A549 cells assessed as accumulation at sub-G0 phase at 160 nM after 20 hrs by propidium iodide staining based flow cytometry (reference value: 6.6 +/- 0.1%); format: functional
# [26] = test system: A549; assay: Cell cycle arrest in human A549 cells assessed as accumulation at G0/G1 phase at 160 nM after 20 hrs by propidium iodide staining based flow cytometry (reference value: 66 +/- 1%); format: functional
# [27] = test system: A549; assay: Cell cycle arrest in human A549 cells assessed as accumulation at G0/G1 phase at 400 nM after 20 hrs by propidium iodide staining based flow cytometry (reference value: 66 +/- 1%); format: functional
# [28] = test system: A549; assay: Cell cycle arrest in human A549 cells assessed as accumulation at S phase at 400 nM after 20 hrs by propidium iodide staining based flow cytometry (reference value: 16 +/- 1%); format: functional
# [29] = test system: A549; assay: Cell cycle arrest in human A549 cells assessed as accumulation at sub-G0 phase at 400 nM after 20 hrs by propidium iodide staining based flow cytometry (reference value: 6.6 +/- 0.1%); format: functional
# [30] = test system: A549; assay: Cell cycle arrest in human A549 cells assessed as accumulation at G2/M phase at 400 nM after 20 hrs by propidium iodide staining based flow cytometry (reference value: 11 +/- 1%); format: functional
# [31] = test system: A549; assay: Disruption of microtubule network in human A549 cells assessed as appearance of compressed and fragmented nuclei at 200 nM after 16 hrs by Hoechst staining based immunofluorescence assay; format: cell-based
# [32] = test system: A549; assay: Cell cycle arrest in human A549 cells assessed as accumulation at G2/M phase at 50 nM after 20 hrs by propidium iodide staining based flow cytometry (reference value: 11 +/- 1%); format: functional
# [33] = Selectivity index, ratio of IC50 for antiproliferative activity against HEK293 cells to IC50 for antiproliferative activity against human HeLa cells; format: toxicity, cell-based; details: HEK293 cells versus HeLa cells, read-out: Ratio IC50
# [34] = Selectivity index, ratio of IC50 for antiproliferative activity against HEK293 cells to IC50 for antiproliferative activity against human MCF7 cells; format: toxicity, cell-based; details: HEK293 cells versus MCF7 cells, read-out: Ratio IC50
# [35] = test system: A549; assay: Disruption of microtubule network in human A549 cells assessed as appearance of tubulin aggregates at 200 nM after 16 hrs by Hoechst staining based immunofluorescence assay; format: cell-based
# [36] = test system: A549; assay: Cell cycle arrest in human A549 cells assessed as accumulation at G0/G1 phase at 50 nM after 20 hrs by propidium iodide staining based flow cytometry (reference value: 66 +/- 1%); format: functional
# [37] = Selectivity index, ratio of IC50 for antiproliferative activity against HEK293 cells to IC50 for antiproliferative activity against human HT-29 cells; format: toxicity, cell-based; details: HEK293 cells versus HT-29 cells, read-out: Ratio IC50
# [38] = test system: A549; assay: Cell cycle arrest in human A549 cells assessed as accumulation at sub-G0 phase at 50 nM after 20 hrs by propidium iodide staining based flow cytometry (reference value: 6.6 +/- 0.1%); format: functional
# [39] = Selectivity index, ratio of IC50 for antiproliferative activity against HEK293 cells to IC50 for antiproliferative activity against human HL60 cells; format: toxicity, cell-based; details: HEK293 cells versus HL60 cells, read-out: Ratio IC50
# [40] = test system: A549; assay: Cell cycle arrest in human A549 cells assessed as accumulation at S phase at 50 nM after 20 hrs by propidium iodide staining based flow cytometry (reference value: 16 +/- 1%); format: functional
# [41] = test system: A549; assay: Cell cycle arrest in human A549 cells assessed as accumulation at G0/G1 phase at 60 nM after 20 hrs by propidium iodide staining based flow cytometry (reference value: 66 +/- 1%); format: functional
# [42] = test system: A549; assay: Disruption of microtubule network in human A549 cells assessed as appearance of compressed and fragmented nuclei at 230 nM after 16 hrs by Hoechst staining based immunofluorescence assay; format: cell-based
# [43] = test system: A549; assay: Disruption of microtubule network in human A549 cells assessed as appearance of tubulin aggregates at 230 nM after 16 hrs by Hoechst staining based immunofluorescence assay; format: cell-based
# [44] = test system: A549; assay: Cell cycle arrest in human A549 cells assessed as accumulation at S phase at 60 nM after 20 hrs by propidium iodide staining based flow cytometry (reference value: 16 +/- 1%); format: functional
# [45] = test system: HMEC-1; assay: Vascular disruptive activity in HMEC1 cells assessed as disruption of preformed tubular networks after 4 hrs by matrigel based assay; format: functional, cell-based; details: Homo sapiens
# [46] = test system: A549; assay: Cell cycle arrest in human A549 cells assessed as accumulation at G2/M phase at 60 nM after 20 hrs by propidium iodide staining based flow cytometry (reference value: 11 +/- 1%); format: functional
# [47] = test system: A549; assay: Cell cycle arrest in human A549 cells assessed as accumulation at sub-G0 phase at 60 nM after 20 hrs by propidium iodide staining based flow cytometry (reference value: 6.6 +/- 0.1%); format: functional
# [48] = test system: A549; assay: Disruption of microtubule network in human A549 cells assessed as appearance of compressed and fragmented nuclei at 150 nM after 16 hrs by Hoechst staining based immunofluorescence assay; format: cell-based
# [49] = test system: A549; assay: Cell cycle arrest in human A549 cells assessed as accumulation at G0/G1 phase at 40 nM after 20 hrs by propidium iodide staining based flow cytometry (reference value: 66 +/- 1%); format: functional
# [50] = test system: A549; assay: Cell cycle arrest in human A549 cells assessed as accumulation at G2/M phase at 40 nM after 20 hrs by propidium iodide staining based flow cytometry (reference value: 11 +/- 1%); format: functional
# [51] = test system: A549; assay: Cell cycle arrest in human A549 cells assessed as accumulation at S phase at 40 nM after 20 hrs by propidium iodide staining based flow cytometry (reference value: 16 +/- 1%); format: functional
# [52] = test system: A549; assay: Disruption of microtubule network in human A549 cells assessed as appearance of tubulin aggregates at 150 nM after 16 hrs by Hoechst staining based immunofluorescence assay; format: cell-based
# [53] = test system: A549; assay: Cell cycle arrest in human A549 cells assessed as accumulation at sub-G0 phase at 40 nM after 20 hrs by propidium iodide staining based flow cytometry (reference value: 6.6 +/- 0.1%); format: functional
SMILES,IC50 [1] [nM],IC50 [2] [nM],IC50 [3] [nM],inhibition [5],IC50 [7] [nM],IC50 [8] [nM],IC50 [10] [nM],Activity [11] [%],IC50 [12] [nM],IC50 [13] [nM],Activity [14] [%],Activity [15],further results
COc1ccc(/C=C\c2cc(OC)c(OC)c(OC)c2)cc1NC(=O)Oc1cccc(F)c1,7,14.8,13.2,Active,10.6,20,150,26,2.7,60,67,Dose-dependent effect,Activity [4]: 10%; Activity [6]: 43%; Activity [9]: 19%; Activity [16]: 29%; Activity [17]: Active; Activity [18]: Active
COc1ccc(/C=C\c2cc(OC)c(OC)c(OC)c2)cc1NC(=O)Oc1ccccc1Br,18.9,13.4,8,–,7.5,22,180,–,2.6,3,–,–,Activity [19]: 29%; Activity [20]: 10%; Activity [21]: 17%; Activity [22]: 44%
COc1ccc(/C=C\c2cc(OC)c(OC)c(OC)c2)cc1NC(=O)Oc1ccccc1F,62,71,65,–,110,180,320,–,17,4,–,–,Activity [23]: 39%; Activity [24]: 13%; Activity [25]: 17%; Activity [26]: 31%
COc1ccc(/C=C\c2cc(OC)c(OC)c(OC)c2)cc1NC(=O)Oc1ccc(Cl)cc1,82,9.39,142,–,31,76,800,–,24,770,–,–,Activity [27]: 21%; Activity [28]: 18%; Activity [29]: 20%; Activity [30]: 41%
COc1ccc(/C=C\c2cc(OC)c(OC)c(OC)c2)cc1NC(=O)Oc1cccc(Cl)c1,4.4,15.1,14.5,Active,9.2,9,100,29,4.79,13.5,93,Dose-dependent effect,Activity [31]: Active; Activity [32]: 44%; selectivity ratio [33]: 2 to 11; selectivity ratio [34]: 2 to 11; Activity [35]: Active; Activity [36]: 30%; selectivity ratio [37]: 2 to 11; Activity [38]: 16%; selectivity ratio [39]: 2 to 11; Activity [40]: 10%
COc1ccc(/C=C\c2cc(OC)c(OC)c(OC)c2)cc1N,8,12,7.1,Active,22,12,117,56,2.6,4.5,62,Dose-dependent effect,Activity [41]: 21%; Activity [42]: Active; Activity [43]: Active; Activity [44]: 24%; Activity [45]: Dose-dependent effect; Activity [46]: 41%; Activity [47]: 14%
COc1ccc(/C=C\c2cc(OC)c(OC)c(OC)c2)cc1NC(=O)Oc1ccccc1,9.8,11.8,3.3,–,2.9,12,77,45,4.8,4,91,Dose-dependent effect,Activity [48]: Active; Activity [49]: 21%; Activity [50]: 44%; Activity [51]: 15%; Activity [52]: Active; Activity [53]: 20%
